Assay results from US20180015072A1, “Tryptophan is a pro-drug for infectious diseases and cancers” (priority 2016, published 2018).

Tests used:
[1] = test system: pancreatic cancer Mia PaCa2 cell; format: cell-based
Herpes simplex virus 1 = format: cell-based
vaccinia virus = format: cell-based
human cytomegalovirus = format: cell-based
poliovirus = format: cell-based
rift valley fever virus = format: cell-based
tacaribe virus = format: cell-based
[2] = test system: nun small cell lung cancer mice model; test: nun small cell lung cancer mice model; format: in vivo; details: 80 mg/kg/day, China Tongi medical university
[3] = test system: hand foot mouth disease mice model; test: hand foot mouth disease mice model; format: in vivo; details: 320 mg/kg/day, China food and drug inspection Ins.
[4] = test system: human primary white cells
yellow fever virus = format: cell-based
chikungunya viruses = format: cell-based
dengue viruses = format: cell-based
influenza A H1N1 viruses = format: cell-based
MERS coronavirus = format: cell-based
[5] = test system: respiratory syncytial viruses; format: cell-based
[6] = test system: Venezuelan equine encephalitis viruses; format: cell-based
hepatitis C virus = format: cell-based
hepatitis B = format: cell-based

N[C@@H](Cc1c[nH]c2ccccc12)C(=O)O [Tryptophan]
inhibition of Mia PaCa2 cell growth [1]: inhibit | inhibition of Herpes simplex virus 1 (Herpes simplex virus 1): inhibit | inhibition of vaccinia virus (vaccinia virus): inhibit | inhibition of human cytomegalovirus (human cytomegalovirus): inhibit | inhibition of poliovirus (poliovirus): inhibit | inhibition of rift valley fever virus (rift valley fever virus): inhibit | inhibition of tacaribe virus (tacaribe virus): inhibit | prevention and early stage treatment function in lung cancer mice model [2]: significant prevention and early stage treatment function | function in hand foot mouth disease mice model [3]: significant function | safety for human primary white cells [4]: safe

OC[C@H]1O[C@@H](Oc2c[nH]c3ccccc23)[C@H](O)[C@@H](O)[C@@H]1O [Indican]
inhibition of Mia PaCa2 cell growth [1]: inhibit | inhibition of Herpes simplex virus 1 (Herpes simplex virus 1): inhibit | inhibition of vaccinia virus (vaccinia virus): inhibit | inhibition of human cytomegalovirus (human cytomegalovirus): inhibit | inhibition of poliovirus (poliovirus): inhibit | inhibition of rift valley fever virus (rift valley fever virus): inhibit | inhibition of tacaribe virus (tacaribe virus): inhibit | inhibition of yellow fever virus (yellow fever virus): inhibits | inhibition of chikungunya viruses (chikungunya viruses): inhibits | inhibition of dengue viruses (dengue viruses): inhibits | inhibition of influenza A H1N1 viruses (influenza A H1N1 viruses): inhibits | inhibition of MERS coronavirus (MERS coronavirus): inhibits | inhibition of respiratory syncytial viruses [5]: inhibits | inhibition of Venezuelan equine encephalitis viruses [6]: inhibits | inhibition of hepatitis C virus (hepatitis C virus): inhibits | function against hepatitis B (hepatitis B): does not show function | prevention and early stage treatment function in lung cancer mice model [2]: significant prevention and early stage treatment function | function in hand foot mouth disease mice model [3]: significant function
